{
  "source": "patent US20250333377A1",
  "about": "“SOLID FORM OF NAPHTHYLAMINE MITOPHAGY INDUCER, AND PREPARATION METHOD THEREFOR, PHARMACEUTICAL COMPOSITION THEREOF AND USE THEREOF” (HANGZHOU PHECDAMED CO., LTD., priority 2023, published 2025)",
  "key": {"[1]": {"test_system": "renal ischemia-reperfusion (I/R) model of SD rats", "test": "Acute kidney injury model caused by unilateral renal ischemia and reperfusion in rats", "assay_type": "in vivo", "procedure": "The pharmacodynamic effects of the D crystal form of TJ01-013 are studied in a renal ischemia-reperfusion (I/R) model of SD rats. Each group has twelve male rats of 280-300 g. They are administered by gavage once a day for 3 consecutive days. Three dose groups are divided into 3 mg/kg, 10 mg/kg and 30 mg/kg. The sham group and model control group were administered by equal volumes of 0.5% CMC-Na, and left renal artery ligation is performed 1 h after administration on the fourth day, and right nephrectomy is performed after 45 min of ischemia and before reperfusion, and then administered every day until 3 d after administration. The endpoint of the experiment is 3 d after administration."}, "[2]": {"test": "Hygroscopicity (vapor sorption analyser, DVS)", "assay_type": "physicochemical", "procedure": "Single crystalline sample of compound TJ01-013 is tested using a Waters vaporsorption analyser. Taking a dry weighing tray, and laying a single sample of crystal form flat in the weighing tray, and the volume of the loaded samples is about ⅓ to ⅔ of that of the weighing tray. Instrument parameters are set as follows: temperature: 25° C.; equilibrium: dm/dt=0.01%/min (minimum time: 10 minutes, and maximum time: 180 minutes); drying: drying 120 minutes under 0% RH; RH (%) testing gradient: 10%; RH (%) test gradient range: 0%-90%-0%."}, "[3]": {"test_system": "SD rat puromycin aminonucleoside (PAN) model", "test": "PAN-induced renal injury model in rats", "assay_type": "in vivo, SD rats", "procedure": "The effect of D crystal form of TJ01-013 on renal function is studied in the SD rat puromycin aminonucleoside (PAN) model. Each group has twelve male rats of 160-180 g. On the first day of the experiment, except for the normal control group, rats in the other groups are given a single intraperitoneal injection of 100 mg/kg PAN (aminonucleoside puromycin) to induce the production of proteinuria. After modeling, the rats are randomly divided into the model control group, the three dose groups of 3 mg/kg, 10 mg/kg, and 30 mg/kg of the D crystal form of TJ01-013, and the normal control group. At the same time as intraperitoneal injection of PAN for modeling, the drug is administered by gavage once a day, with a volume of 10 mL/kg, for four consecutive weeks."}, "[4]": {"details": "3 mg/kg, 10 mg/kg, and 30 mg/kg, P<0.05-0.001"}, "[5]": {"details": "10 mg/kg and 30 mg/kg, versus model control, P<0.001"}, "[6]": {"details": "3, 10, and 30 mg/kg gavage, 7 and 12 d after administration, versus model control"}},
  "data": [
    {"smiles": "O=C(O)C[S+]([O-])c1cc(NS(=O)(=O)c2ccc(Br)cc2)c2ccccc2c1O", "note": "(centres unmarked) [Embodiment 4]", "values": [
      {"measurement": "Creatinine clearance rate", "setting": "[1]; 3 mg/kg, 10 mg/kg and 30 mg/kg, versus model control", "result": "different degrees of improvement"},
      {"measurement": "Expression level of inflammatory factor IL-1p in renal tissues", "setting": "[1]; [4]", "result": "significantly decreased"},
      {"measurement": "Expression level of inflammatory factor IL-6 in renal tissues", "setting": "[1]; [4]", "result": "significantly decreased"},
      {"measurement": "Urea nitrogen level", "setting": "[1]; 10 mg/kg and 30 mg/kg, 72 h after ischemia-reperfusion", "result": "significant trend of decrease"},
      {"measurement": "Apoptotic cell rate in renal tissue", "setting": "[1]; [5]", "result": "significantly decreased"},
      {"measurement": "Expression level of apoptotic factor caspase 9 in renal tissues", "setting": "[1]; [5]", "result": "significantly decreased"},
      {"measurement": "Creatinine values", "setting": "[1]; 10 mg/kg, 24 h, 48 h and 72 h after ischemia-reperfusion, versus model control, P<0.05-0.01", "result": "significantly decreased"},
      {"measurement": "Degree of renal lesions (tubular dilatation, necrosis, glomerular atrophy, inflammatory cell infiltration etc.)", "setting": "[1]; 10 mg/kg, versus model control", "result": "significantly reduced"},
      {"measurement": "Creatinine clearance rate", "setting": "[1]; 10 mg/kg, versus model control, P<0.05", "result": "statistically significant"},
      {"measurement": "Creatinine values", "setting": "[1]; 30 mg/kg, 24 h and 72 h after reperfusion, P<0.05", "result": "significantly decreased"},
      {"measurement": "Degree of renal lesions (tubular dilatation, necrosis, glomerular atrophy, inflammatory cell infiltration etc.)", "setting": "[1]; 30 mg/kg, versus model control", "result": "tendency to reduce the above lesions"},
      {"measurement": "Effect on body weight", "setting": "[1]; 3, 10, and 30 mg/kg gavage, 72 h after reperfusion, versus model control", "result": "no significant effect"},
      {"measurement": "Percentage weight gain by moisture absorption", "setting": "[2]; 90% RH, 25° C.", "result": 2.13, "unit": "%"},
      {"measurement": "Hygroscopicity (in words)", "setting": "[2]; according to Table 7, 90% RH", "result": "slightly hygroscopic"},
      {"measurement": "Amount of the 24 h urine protein", "setting": "[3]; [6]", "result": "different degrees of reduction"},
      {"measurement": "Urine protein concentration", "setting": "[3]; [6]", "result": "different degrees of reduction"},
      {"measurement": "Amount of the 24 h urine protein", "setting": "[3]; 3, 10, and 30 mg/kg, 12 d after administration", "result": "certain trend of reduction"},
      {"measurement": "Blood albumin", "setting": "[3]; 3, 10 and 30 mg/kg, 7 d and 12 d after administration, versus model control", "result": "different degrees of increase"},
      {"measurement": "Therapeutic effect on PAN-induced renal injury", "setting": "[3]; gavage 3, 10, 30 mg/kg", "result": "significant therapeutic effect"},
      {"measurement": "Degree of renal lesions, pathologic microscopy", "setting": "[3]; low, medium and high dose groups", "result": "reduce the degree of lesions"}
    ]}
  ]
}
